This is an account of results in paper PMC8468767, “Optimisation of a Microfluidic Method for the Delivery of a Small Peptide” (Pharmaceutics, 2021).

Structures are written as SMILES. Values after ≈ are worked out from the molar mass of the structure shown. Values joined by “and” are separate entries in the source; they are usually repeats but may differ in a detail not shown here. Equal entries are not always repeated. Bridge positions count the residues as written; N and C are the ends. Square brackets hold non-standard residues; d marks the D form. Peptide text beside a SMILES is read from it. * marks the point of attachment. Hydrocinnamoyl = O=C(CCc1ccccc1)*; dCha = N[C@H](CC1CCCCC1)C(=O)O; Orn = NCCC[C@H](N)C(=O)O

Data set [1] is described as follows: Plasma pharmacokinetics after a single IV dose in mice. It is filed as in vivo. The following applies: male C57BL/6J mice, LC-MS/MS. How it is done:
The C5aR1 peptide antagonist concentrations were quantified by a previously developed and validated LC–MS/MS method. Briefly, the LC–MS/MS system consisted of an API 3200 (AB SCIEX) triple quadrupole LC–MS/MS mass spectrometer coupled with an Agilent 1200 series HPLC system (Agilent Technologies, Santa Clara CA, USA). For sample processing, 10 µL of the solution containing the C5aR1 peptide antagonist was mixed with 10 µL of internal standard (AcF-[OPdChaWR]) dissolved in solvent (ACN) followed by sample processing, extraction, supernatant isolation, drying, and reconstitution in a 75% methanol-in-water solution. A small volume of processed sample (approximately 50 µL) was used for the LC–MS measurement. The autosampler was set at 4 °C and the column oven temperature was maintained in the range of 25 ± 1 °C. The system control and data acquisition were executed by Analyst software (AB SCIEX, Applied Biosystems Inc., Framingham, MA, USA, version 1.5.1). Chromatographic separation was implemented using a Kinetex EVO C18 analytical column (100 mm × 2.1 mm, 100 Å, 5 µm, Phenomenex Inc., Torrance, CA, USA) under binary gradient conditions using mobile phase A (milliQ water containing 0.1% formic acid) and mobile phase B (acetonitrile containing 0.1% formic acid) with a variable flow rate, as described in Kumar et al..
The plasma pharmacokinetic (PK) profile and biodistribution of peptide-loaded nanoparticles (1 mg/kg equivalent dose of free peptide) vs. free peptide were assessed in mice after intravenous (IV; via tail vein) dosing. Serial blood samples were collected via a tail vein using a microsampling technique. Blood samples were collected at 0.04, 0.25, 0.5, 0.75, 1, 1.5, […], 4, 6, and 24 h for both groups and then 48, 72, 96, and 120 h for the nanoparticle group. The blood samples were centrifuged at 2000× g for 10 min at 4 °C, and the separated plasma samples (10 µL) were collected, diluted with 100 µL of milliQ water and 10 µL of internal standard, filtered through Microcon®-10 centrifugal filters (Merck, Melbourne, VIC, Australia) to separate nanoparticles from released peptide, and stored at −80 °C until time of analysis. For tissue distribution, on the terminal day, i.e., day 1 for native peptide and day 5 for the nanoparticle group, animals were transcardially perfused using PBS solution to remove circulatory peptide/formulation, and tissue samples were collected, processed as described in our previously published method, and filtered as mentioned above.
On the day of analysis, samples were processed for C5aR1 peptide antagonist concentrations using the above-mentioned LC–MS/MS method as described previously. […]

Data set [2] in a line: Solubility of the peptide in water. It is filed as physicochemical. The following applies: method not described.
The conditions of data set [3]: mice, cited from earlier work. The text has this: The hexapeptide, phenylpropanoic acid-[ornithine-proline-d-cyclohexylalanine-tryptophan-arginine] (HC-[OPdChaWR]) is an antagonist of the C5a receptor 1 (C5aR1) of the innate immune complement cascade.

As for `N=C(N)NCCC[C@@H]1NC(=O)[C@H](Cc2c[nH]c3ccccc23)NC(=O)[C@@H](CC2CCCCC2)NC(=O)[C@@H]2CCCN2C(=O)[C@@H](NC(=O)CCc2ccccc2)CCCNC1=O` [HC-[OPdChaWR], phenylpropanoic acid-[ornithine-proline-d-cyclohexylalanine-tryptophan-arginine]] (Hydrocinnamoyl-[Orn]P[dCha]WR; lactam 1-C), the “time for which plasma peptide levels are measurable after dosing” value in data set [1] (single IV 1 mg/kg peptide equivalent, plasma) was “unmeasurable after 6 h post-dosing”. Besides, the MRT in data set [1] (mouse, single IV 1 mg/kg peptide equivalent, plasma, two-compartmental model, n = 4, read-out: mean residence time (MRT)) was determined as 45.6 min. Besides, the AUC(0-t) in data set [1] (mouse, single IV 1 mg/kg, plasma, linear trapezoidal rule, n = 4, read-out: systemic exposure (AUC0-t)) is 3830 ng·h/mL. Also, in data set [1] (mouse, single IV (tail vein) 1 mg/kg peptide equivalent, plasma filtered (Microcon-10) so released peptide is measured, two-compartmental model, n = 4, read-out: terminal elimination half-life (t1/2) (converted)), the half-life is 50.4 min. Further, in data set [2], the solubility in water is 1000 µg/mL (≈ 1190 µM). Further, in data set [3] (intravenous (IV) injection), the “plasma half-life in vivo” value was 10.2 min. For the same compound, the “t1/2 values reported previously” value in data set [3] (listed as free peptide) is 10.2 min and 19.8 min.
